Data published in patent US9149038B2, “4-amino-6-(heterocyclic)picolinates and 6-amino-2-(heterocyclic)pyrimidine-4-carboxylates and their use as herbicides” (Dow AgroSciences LLC, priority 2013, dated 2015).
Read-outs that look alike come from different tables or passages of the source.

How the values were obtained:
[1] = test system: Key Broadleaf Weed and Crop Species; experiment: Post-Emergent Test II: postemergent herbicidal activity, visual rating after 14 d (Table 7); format: in vivo; conditions: post-emergence, 336 h; for pest or weed control at 35 g/ha: 35 g ai/ha; for pest or weed control at 70 g/ha: 70 g ai/ha; for pest or weed control at 140 g/ha: 140 g ai/ha
Method in brief: (§1)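 Greenhouse-grown plants at the first or second true leaf stage (7-21 d, ~15 h photoperiod, 23-29° C day) were sprayed with compound in acetone/DMSO-based aqueous spray containing crop oil concentrate and Triton X-155 at 187 L/ha. Injury versus untreated plants was rated visually after 14 d on a 0-100 scale.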

[2] = test system: Key Grass and Sedge Weeds as well as Grass Crops; experiment: Post-Emergent Test II: postemergent herbicidal activity, visual rating after 14 d (Table 8); format: in vivo; conditions: post-emergence, 336 h; for pest or weed control at 35 g/ha: 35 g ai/ha; for pest or weed control at 70 g/ha: 70 g ai/ha; for pest or weed control at 140 g/ha: 140 g ai/ha
Method in brief: as §1

[3] = ABUTH: velvetleaf (Abutilon theophrasti), read-out: Visual Growth Reduction (%) 14 Days After Application ABUTH
[4] = AMARE: redroot pigweed (Amaranthus retroflexus), read-out: Visual Growth Reduction (%) 14 Days After Application AMARE
[5] = BRSNN: oilseed rape, canola (Brassica napus), read-out: Visual Growth Reduction (%) 14 Days After Application BRSNN
[6] = CHEAL: lambsquarters (Chenopodium album), read-out: Visual Growth Reduction (%) 14 Days After Application CHEAL
[7] = EPHHL: wild poinsettia (Euphorbia heterophylla), read-out: Visual Growth Reduction (%) 14 Days After Application EPHHL
[8] = HELAN: sunflower (Helianthus annuus), read-out: Visual Growth Reduction (%) 14 Days After Application HELAN
[9] = barnyardgrass (Echinochloa crus-galli), read-out: Visual Growth Reduction (%) 14 Days After Application, ECHCG
[10] = giant foxtail (Setaria faberi), read-out: Visual Growth Reduction (%) 14 Days After Application, SETFA
[11] = maize, corn (Zea mays), read-out: Visual Growth Reduction (%) 14 Days After Application, ZEAMX
[12] = rice (Oryza sativa), read-out: Visual Growth Reduction (%) 14 Days After Application, ORYSA
[13] = wheat, spring (Triticum aestivum), read-out: Visual Growth Reduction (%) 14 Days After Application, TRZAS
[14] = yellow nutsedge (Cyperus esculentus), read-out: Visual Growth Reduction (%) 14 Days After Application, CYPES

Structure (SMILES) | pest or weed control at 35 g/ha [1, 3] [%] | pest or weed control at 70 g/ha [1, 3] [%] | pest or weed control at 140 g/ha [1, 3] [%] | pest or weed control at 35 g/ha [1, 5] [%] | pest or weed control at 70 g/ha [1, 5] [%] | pest or weed control at 140 g/ha [1, 5] [%] | pest or weed control at 35 g/ha [1, 6] [%] | pest or weed control at 70 g/ha [1, 6] [%] | pest or weed control at 140 g/ha [1, 6] [%] | pest or weed control at 35 g/ha [1, 7] [%] | pest or weed control at 70 g/ha [1, 7] [%] | pest or weed control at 140 g/ha [1, 7] [%] | pest or weed control at 35 g/ha [1, 8] [%] | pest or weed control at 70 g/ha [1, 8] [%] | pest or weed control at 140 g/ha [1, 8] [%] | pest or weed control at 35 g/ha [2, 9] [%] | pest or weed control at 70 g/ha [2, 9] [%] | pest or weed control at 140 g/ha [2, 9] [%] | pest or weed control at 35 g/ha [2, 10] [%] | pest or weed control at 70 g/ha [2, 10] [%] | other results
COC(=O)c1nc(-c2ccc3c(c2)OCC3)c(F)c(N)c1Cl [Compound 100, Methyl 4-amino-3-chloro-6-(2,3-dihydrobenzofuran-6-yl)-5-fluoropicolinate] | 45 to 59 | 85 to 94 | 95 to 100 | 0 to 29 | 0 to 29 | 0 to 29 | 95 to 100 | 95 to 100 | 95 to 100 | 95 to 100 | 95 to 100 | 95 to 100 | 60 to 74 | 60 to 74 | 75 to 84 | 45 to 59 | 75 to 84 | 85 to 94 | 0 to 29 | 0 to 29 | pest or weed control at 35 g/ha [1, 4]: 75 to 84%; pest or weed control at 70 g/ha [1, 4]: 95 to 100%; pest or weed control at 140 g/ha [1, 4]: 95 to 100%; pest or weed control at 140 g/ha [2, 10]: 0 to 29%; pest or weed control at 35 g/ha [2, 11]: 0 to 29%; pest or weed control at 70 g/ha [2, 11]: 95 to 100%; pest or weed control at 140 g/ha [2, 11]: 95 to 100%; pest or weed control at 35 g/ha [2, 12]: 0 to 29%; pest or weed control at 70 g/ha [2, 12]: 0 to 29%; pest or weed control at 140 g/ha [2, 12]: 0 to 29%; pest or weed control at 35 g/ha [2, 13]: 0 to 29%; pest or weed control at 70 g/ha [2, 13]: 0 to 29%; pest or weed control at 140 g/ha [2, 13]: 0 to 29%; pest or weed control at 35 g/ha [2, 14]: 0 to 29%; pest or weed control at 70 g/ha [2, 14]: 0 to 29%; pest or weed control at 140 g/ha [2, 14]: 0 to 29%
COC(=O)c1nc(-c2ccc(Cl)c3c2OC(F)(F)O3)c(C)c(N)c1Cl [Compound 94] | 30 to 44 | 45 to 59 | 45 to 59 | 0 to 29 | 0 to 29 | 0 to 29 | 75 to 84 | 85 to 94 | 85 to 94 | 0 to 29 | 0 to 29 | 0 to 29 | 60 to 74 | 85 to 94 | 95 to 100 | 0 to 29 | 0 to 29 | 0 to 29 | 0 to 29 | 0 to 29 | pest or weed control at 35 g/ha [1, 4]: 95 to 100%; pest or weed control at 70 g/ha [1, 4]: 95 to 100%; pest or weed control at 140 g/ha [1, 4]: 95 to 100%; pest or weed control at 140 g/ha [2, 10]: 0 to 29%; pest or weed control at 35 g/ha [2, 12]: 0 to 29%; pest or weed control at 70 g/ha [2, 12]: 0 to 29%; pest or weed control at 140 g/ha [2, 12]: 0 to 29%; pest or weed control at 35 g/ha [2, 13]: 0 to 29%; pest or weed control at 70 g/ha [2, 13]: 0 to 29%; pest or weed control at 140 g/ha [2, 13]: 0 to 29%; pest or weed control at 35 g/ha [2, 14]: 0 to 29%; pest or weed control at 70 g/ha [2, 14]: 0 to 29%; pest or weed control at 140 g/ha [2, 14]: 0 to 29%
COC(=O)c1nc(-c2cccc3c2OCC3)c(F)c(N)c1Cl [Compound 102] | 0 to 29 | 0 to 29 | 45 to 59 | 0 to 29 | 0 to 29 | 0 to 29 | 95 to 100 | 95 to 100 | 95 to 100 | 0 to 29 | 0 to 29 | 0 to 29 | 75 to 84 | 85 to 94 | 85 to 94 | 0 to 29 | 0 to 29 | 0 to 29 | 0 to 29 | 0 to 29 | pest or weed control at 140 g/ha [2, 10]: 0 to 29%; pest or weed control at 35 g/ha [2, 11]: 0 to 29%; pest or weed control at 70 g/ha [2, 11]: 0 to 29%; pest or weed control at 140 g/ha [2, 11]: 0 to 29%; pest or weed control at 35 g/ha [2, 12]: 0 to 29%; pest or weed control at 70 g/ha [2, 12]: 0 to 29%; pest or weed control at 140 g/ha [2, 12]: 0 to 29%; pest or weed control at 35 g/ha [2, 13]: 0 to 29%; pest or weed control at 70 g/ha [2, 13]: 0 to 29%; pest or weed control at 140 g/ha [2, 13]: 0 to 29%; pest or weed control at 35 g/ha [2, 14]: 0 to 29%; pest or weed control at 70 g/ha [2, 14]: 0 to 29%; pest or weed control at 140 g/ha [2, 14]: 0 to 29%
COC(=O)c1nc(-c2ccc(F)c3c2OCO3)cc(N)c1Cl [Compound 92] | 60 to 74 | 85 to 94 | 85 to 94 | 30 to 44 | 60 to 74 | 75 to 84 | 95 to 100 | 85 to 94 | 95 to 100 | 0 to 29 | 0 to 29 | 0 to 29 | 60 to 74 | 60 to 74 | 75 to 84 | 0 to 29 | 0 to 29 | 0 to 29 | 0 to 29 | 0 to 29 | pest or weed control at 35 g/ha [1, 4]: 95 to 100%; pest or weed control at 70 g/ha [1, 4]: 95 to 100%; pest or weed control at 140 g/ha [1, 4]: 95 to 100%; pest or weed control at 140 g/ha [2, 10]: 0 to 29%; pest or weed control at 35 g/ha [2, 11]: 0 to 29%; pest or weed control at 70 g/ha [2, 11]: 0 to 29%; pest or weed control at 140 g/ha [2, 11]: 0 to 29%; pest or weed control at 35 g/ha [2, 12]: 0 to 29%; pest or weed control at 70 g/ha [2, 12]: 0 to 29%; pest or weed control at 140 g/ha [2, 12]: 0 to 29%; pest or weed control at 35 g/ha [2, 13]: 0 to 29%; pest or weed control at 70 g/ha [2, 13]: 0 to 29%; pest or weed control at 140 g/ha [2, 13]: 0 to 29%; pest or weed control at 35 g/ha [2, 14]: 0 to 29%; pest or weed control at 70 g/ha [2, 14]: 0 to 29%; pest or weed control at 140 g/ha [2, 14]: 0 to 29%
